# Bridge positions count the residues as written; N and C are the ends. Peptide text beside a SMILES is read from it.
# Columns and labels:
# P. aeruginosa ATCC 27853 = assay type: cell-based, Pseudomonas aeruginosa; conditions: cation adjusted Mueller-Hinton broth, ~10^6 CFU/mL, 24 h, 37 °C, OD600 <0.1 in at least 3 of 4 wells, 2-128 μg/mL; shaded values previously reported ref 18
# How it was run: (§1)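 Bacteria grown overnight in trypticase soy broth at 37 °C, diluted to ~10^6 CFU/mL in 2X cation-adjusted Mueller–Hinton broth and exposed to dAMPs at 0–128 μg/mL; fungus run in potato dextrose broth. After 24 h at 37 °C, MIC was lowest concentration with ≥3 of 4 wells at OD600 <0.1.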
# P. aeruginosa 6186 = assay type: cell-based, Pseudomonas aeruginosa; conditions: cation adjusted Mueller-Hinton broth, ~10^6 CFU/mL, 24 h, 37 °C, OD600 <0.1 in at least 3 of 4 wells, 2-128 μg/mL; shaded values previously reported ref 18
# How it was run: as §1
# P. aeruginosa ATCC 19660 = assay type: cell-based, Pseudomonas aeruginosa; conditions: cation adjusted Mueller-Hinton broth, ~10^6 CFU/mL, 24 h, 37 °C, OD600 <0.1 in at least 3 of 4 wells, 2-128 μg/mL; shaded values previously reported ref 18
# How it was run: as §1
# L929 fibroblast cells = assay: Bioluminescent mammalian cytotoxicity assay; assay type: cell-based, murine; conditions: L929 fibroblasts, up to 64 μg/mL, 8 h of exposure, bioluminescence
# Protocol: Real-time killing of bacterial cells, P. aeruginosa or S. aureus, and mammalian cytotoxicity to assess dAMP off-target toxicity was evaluated using bioluminescent cells. The L929 fibroblast cells (ATCC, Manassas, VA, USA) were made bioluminescent by transfection with a luciferase gene. Cells (1 × 10^4 cells, 100 μL) were plated in 96-well black-walled plates and the candidate dAMPs were 2-fold serially diluted from specified concentrations in growth medium supplemented with 150 μg/mL D-luciferin. Each concentration was performed in triplicate, with the final volume being 200 μL. Imaging was performed at select times after the addition of the dAMP, and compared to concurrently run vehicle-control, using an IVIS Lumina imaging system (Caliper Life Sciences, Inc., Hopkinton, MA, USA). For imaging, the 96-well plate was positioned on the stage (12.5-cm field of view), with an open emission filter, binning of 4, and f-stop 1 and a 1-min exposure time. Monitoring bioluminescence allows assessment of the kinetics of cellular viability as there is a tight correlation between the bioluminescent signal and cell viability. […]
# Figure 2 RP504, RP556 and RP557 induce limited mammalian cell toxicity. […] Cells were plated at 1×10^4 cells/well, allowed to adhere overnight and the specific dAMP added, and cytotoxicity evaluated through 8 h. […]
# A. baumannii 6043 = assay type: cell-based, Acinetobacter baumannii; conditions: cation adjusted Mueller-Hinton broth, ~10^6 CFU/mL, 24 h, 37 °C, OD600 <0.1 in at least 3 of 4 wells, 2-128 μg/mL; shaded values previously reported ref 18
# How it was run: as §1
# A. baumannii 6838 = assay type: cell-based, Acinetobacter baumannii; conditions: cation adjusted Mueller-Hinton broth, ~10^6 CFU/mL, 24 h, 37 °C, OD600 <0.1 in at least 3 of 4 wells, 2-128 μg/mL; shaded values previously reported ref 18
# How it was run: as §1
# A. baumannii ATCC 17978 = assay type: cell-based, Acinetobacter baumannii; conditions: cation adjusted Mueller-Hinton broth, ~10^6 CFU/mL, 24 h, 37 °C, OD600 <0.1 in at least 3 of 4 wells, 2-128 μg/mL; shaded values previously reported ref 18
# How it was run: as §1
# [1] = tested on: Fusarium solani NRRL 28548; assay type: cell-based; conditions: potato dextrose broth, 24 h, 37 °C, OD600 <0.1 in at least 3 of 4 wells, dose range 2 to 128 µg/mL; shaded values previously reported ref 17
# How it was run: as §1
# Candida albicans Y-326 = assay type: cell-based; conditions: potato dextrose broth, 24 h, 37 °C, OD600 <0.1 in at least 3 of 4 wells, dose range 2 to 128 µg/mL; shaded values previously reported ref 17
# How it was run: as §1
# [2] = tested on: Candida parapsilosis Y-1761; assay type: cell-based; conditions: potato dextrose broth, 24 h, 37 °C, OD600 <0.1 in at least 3 of 4 wells, dose range 2 to 128 µg/mL; shaded values previously reported ref 17
# How it was run: as §1
# Candida albicans Y-6359 = assay type: cell-based; conditions: potato dextrose broth, 24 h, 37 °C, OD600 <0.1 in at least 3 of 4 wells, dose range 2 to 128 µg/mL; shaded values previously reported ref 17
# How it was run: as §1
# Candida krusei Y-27825 = assay type: cell-based; conditions: potato dextrose broth, 24 h, 37 °C, OD600 <0.1 in at least 3 of 4 wells, dose range 2 to 128 µg/mL; shaded values previously reported ref 17
# How it was run: as §1
# Candida krusei Y-27803 = assay type: cell-based; conditions: potato dextrose broth, 24 h, 37 °C, OD600 <0.1 in at least 3 of 4 wells, dose range 2 to 128 µg/mL; shaded values previously reported ref 17
# How it was run: as §1
# [3] = tested on: Aspergillus fumigatus 9651; assay type: cell-based; conditions: potato dextrose broth, 24 h, 37 °C, OD600 <0.1 in at least 3 of 4 wells, dose range 2 to 128 µg/mL; shaded values previously reported ref 17
# How it was run: as §1
# [4] = tested on: Aspergillus flavus MYA-1004; assay type: cell-based; conditions: potato dextrose broth, 24 h, 37 °C, OD600 <0.1 in at least 3 of 4 wells, dose range 2 to 128 µg/mL; shaded values previously reported ref 17
# How it was run: as §1
# [5] = tested on: Absidia corymbifera NRRL 6251; assay type: cell-based; conditions: potato dextrose broth, 24 h, 37 °C, OD600 <0.1 in at least 3 of 4 wells, dose range 2 to 128 µg/mL; shaded values previously reported ref 17
# How it was run: as §1
smiles,measurement,setting,value
"CC[C@H](C)[C@@H]1NC(=O)CNC(=O)[C@H](CCCCN)NC(=O)[C@H](Cc2ccc(O)cc2)NC(=O)[C@@H]2CSSC[C@H](NC1=O)C(=O)N[C@@H](Cc1ccc(O)cc1)C(=O)N[C@@H](CCCCN)C(=O)N[C@@H](CCCCN)C(=O)N[C@H](C(=O)N[C@@H](CCCCN)C(N)=O)CSSC[C@H](NC(=O)[C@H](Cc1c[nH]c3ccccc13)NC(=O)[C@@H](N)CCCNC(=N)N)C(=O)N[C@@H](Cc1ccccc1)C(=O)N[C@@H](CCCCN)C(=O)N[C@@H](C(C)C)C(=O)N2 [RP556] (H-RWCFKVCYKGICYKKCK-NH2; disulfide 3-16, 7-12)",MIC against P. aeruginosa ATCC 27853,P. aeruginosa ATCC 27853,8 µg/mL
same,MIC against P. aeruginosa 6186,P. aeruginosa 6186,4 µg/mL
same,MIC against P. aeruginosa ATCC 19660,P. aeruginosa ATCC 19660,8 µg/mL
same,mammalian cell toxicity (in words),L929 fibroblast cells,Limited toxicity
same,MIC against A. baumannii 6043,A. baumannii 6043,8 µg/mL
same,MIC against A. baumannii 6838,A. baumannii 6838,8 µg/mL
same,MIC against A. baumannii ATCC 17978,A. baumannii ATCC 17978,8 µg/mL
same,MIC against Fusarium solani NRRL 28548,[1],2 µg/mL
same,MIC against Candida albicans Y-326,Candida albicans Y-326,16 µg/mL
same,MIC against Candida parapsilosis Y-1761,[2],32 µg/mL
same,MIC against Candida albicans Y-6359,Candida albicans Y-6359,8 µg/mL
same,MIC against Candida krusei Y-27825,Candida krusei Y-27825,32 µg/mL
same,MIC against Candida krusei Y-27803,Candida krusei Y-27803,16 µg/mL
same,MIC against Aspergillus fumigatus 9651,[3],64 µg/mL
same,MIC against Aspergillus flavus MYA-1004,[4],64 µg/mL
same,MIC against Absidia corymbifera NRRL 6251,[5],2 µg/mL
